Patent US20120277296A1, “Selective CB2 Receptor Agonists for Use in the Prevention or Treatment of Alcoholic Liver Disease” (priority 2009, published 2012)
“Also recorded” adds a separate entry of the source.

Columns and labels:
[1] = test system: WT mice fed EtOH (EtOH-induced hepatic steatosis); test: Chronic ethanol feeding model (modified Lieber-De Carli diet, 10 days): hepatic steatosis; assay type: in vivo, mouse; details: JWH-133 3 mg/kg daily intraperitoneal during 10 day ethanol feeding, vs. vehicle
Experimental: (§1) Animals. Female mice (8-10 week old) were used for the experiments and included wild type (WT) C57B1/6J mice (Janvier, France) and mice with a targeted mutation of the Cnr2 gene (Buckley et al. 2000). Homozygous Cnr2−/− animals were obtained from heterozygous Cnr2+/− mice that were backcrossed with WT C57Bl/6J animals over 10 generations, and further intercrossed to obtain homozygous animals. Genotyping was performed on tail genomic DNA using QuantiTect™ SYBR® Green PCR kit (Qiagen). Animals were housed in temperature and humidity controlled rooms, kept on a 12-h light/dark cycle and provided unrestricted amounts of food and water. Animal procedures were conducted in accordance with French government policies (Services Vétérinaires de la Santé et de la Production Animale, Ministère de l'Agriculture).
(§2) Chronic exposure to ethanol. […] Body weight and food intake were measured daily.
(§3) The impact of the CB2 agonist JWH-133 or its vehicle was evaluated in WT mice that were treated with a daily intraperitoneal injection of JWH-133 (3 mg/kg) or its vehicle during the 10 day feeding with ethanol. […] Body weight and food intake were measured daily. […]
Hepatic triglyceride quantification. […] Triglycerides were quantified with a triglyceride determination kit (Sigma), on liver samples from 10-15 animals per group.

TNF-α mRNA expression = test: Chronic ethanol feeding model: hepatic inflammation, TNF-α mRNA expression by RT-PCR; assay type: in vivo, mouse; details: WT mice fed EtOH, JWH-133 3 mg/kg daily intraperitoneal during 10 day ethanol feeding, vs. vehicle
Experimental: as §1, with “Animal procedures were conducted in accordance with French government policies (Services Vétérinaires de la Santé et de la Production Animale, Ministère de l'Agriculture).” left out
as §2, §3
RNA preparation and RT-PCR. […] Quantitative real time-PCR was carried out on a Light Cycler (Roche Diagnostics), as previously described (Julien et al. 2005). Oligonucleotide primers (MWG Biotech) for the following mouse genes were used: mouse Rn18S; mouse Tnf, PCR amplified products were analyzed on a 2% agarose gel and sequenced.

SMILES: CCCC(C)(C)c1ccc2c(c1)OC(C)(C)[C@@H]1CC=C(C)C[C@@H]21 [JWH-133, (6aR,10aR)-3-(1,1-dimethylbutyl)-6a,7,10,10a-tetrahydro-6,6,9-trimethyl-6Hdibenzo[b,d]pyran]
- hepatic triglyceride content [1]: decrease; also recorded: strongly reduced
- liver/body weight ratio [1]: decrease; also recorded: strongly reduced
- TNF-α mRNA expression in liver (TNF-α mRNA expression): prevents the increase; also recorded: reduced TNF-α mRNA levels to control levels
